Where “and” joins values, the source holds several entries; their conditions need not be identical. Equal entries are not always repeated. Values belong to the compound of their own block, whether it stands above or below them.
Assay: solvent given as SMILES
[1] = in c1cc(-c2cccc(-n3c4ccccc4c4ccccc43)c2)cc(-n2c3ccccc3c3ccccc32)c1
[2] = in O=P(c1ccccc1)(c1ccccc1)c1ccccc1Oc1ccccc1P(=O)(c1ccccc1)c1ccccc1

fluorescence lifetime (in C1COCCO1): 12.4 ns | fluorescence lifetime (in CN(C)C=O): 6.9 ns | fluorescence lifetime (in CO): 0.68 ns | fluorescence lifetime (in CS(C)=O): 0.17 ns | fluorescence lifetime (in c1ccccc1): 12.2 ns
Compound: O=C1/C(=C2\Sc3ccccc3C2=O)Sc2ccccc21

fluorescence lifetime (in ClCCl): 2.79 ns
Compound: F[B-]1(F)OC(C#Cc2ccccc2)=C2CCc3ccccc3C2=[O+]1

fluorescence lifetime (in ClC(Cl)Cl): 2.8 ns
Compound: CN(C)c1ccc(C2=Cc3ccc4ccccc4[n+]3[B-](F)(F)O2)cc1

fluorescence lifetime (in ClCCl): 2.7 ns
Compound: N#Cc1ccc(N(c2ccccc2)c2ccc3ccc4c(N(c5ccccc5)c5ccc(C#N)cc5)ccc5ccc2c3c54)cc1

Compound: Cc1c(OCC(=O)O)cc2c3c([nH]c2c1C)C(=O)CCC3
fluorescence lifetime (in C1COCCO1): 0.54 ns | fluorescence lifetime (in CC#N): 0.97 ns | fluorescence lifetime (in CCO): 1.52 ns | fluorescence lifetime (in CS(C)=O): 2.34 ns | fluorescence lifetime (in Cc1ccccc1): 0.52 ns | fluorescence lifetime (in O): 1.77 ns

fluorescence lifetime (in ClC(Cl)Cl): 1.06 ns
Compound: Cc1ccc(N(c2ccc(C)cc2)c2ccc(-c3ccc(C=C(C#N)C#N)cc3)cc2)cc1

fluorescence lifetime (in CC#N): 0.78 ns
Compound: F[B-]1(F)n2c(-c3ccccc3)cc(-c3ccccc3)c2N=C2C(c3ccccc3)=CC(c3ccccc3)=[N+]21

fluorescence lifetime (in O): 0.52 ns
Compound: COc1cc2cc(-c3ccc(C(=O)OCOC(C)=O)cc3C(=O)OCOC(C)=O)oc2cc1N1CCOCCOCCN(c2cc3oc(-c4ccc(C(=O)OCOC(C)=O)cc4C(=O)OCOC(C)=O)cc3cc2OC)CCOCCOCC1

fluorescence lifetime (in CC#N): 273 ns
Compound: COC(=O)C12N=N[C@](C(=O)OC)(C3C4CCC(C4)C31)C1[C@@H]3CC[C@@H](C3)[C@H]12 (some centres undefined)

fluorescence lifetime (in ClC(Cl)Cl): 6.3 ns
Compound: CCCCN1C(=O)c2cc(Oc3ccc(C(C)(C)C)cc3)c3c4c(Oc5ccc(C(C)(C)C)cc5)c(Oc5ccc(C(C)(C)C)cc5)c5c6c(cc(Oc7ccc(C(C)(C)C)cc7)c(c7c(Oc8ccc(C(C)(C)C)cc8)c(Oc8ccc(C(C)(C)C)cc8)c(c2c37)C1=O)c64)C(=O)N(CCCC)C5=O

fluorescence lifetime (in C1CCOC1): 5.02 ns | fluorescence lifetime (in C1COCCO1): 5.29 ns | fluorescence lifetime (in CC#N): 4.91 ns | fluorescence lifetime (in CCCCCCC): 4.54 ns | fluorescence lifetime (in CCO): 3.66 ns | fluorescence lifetime (in O): 4.2 ns | fluorescence lifetime (in OCC(O)CO): 2.17 ns | fluorescence lifetime (in OCCO): 2.8 ns
Compound: CCOC(=O)C1CC(c2c(C#N)c(C)nn2-c2ccccc2)=CN1c1ccc(Br)cc1 (centres undefined)

fluorescence lifetime [1]: 21 ns
Compound: N#Cc1nc(-c2ccc(N3c4ccccc4Oc4ccccc43)cc2)c(-c2ccc(N3c4ccccc4Oc4ccccc43)cc2)nc1C#N

Compound: N#Cc1c(-n2c3ccccc3c3ccccc32)cccc1-n1c2ccccc2c2ccccc21
fluorescence lifetime (in Cc1ccccc1): 2.6 ns | fluorescence lifetime [2]: 4 ns

fluorescence lifetime (in ClCCl): 1.94 ns
Compound: COc1ccc(-c2cc3c(s2)c(C(C)=O)cc(=O)n3Cc2ccccc2)cc1

fluorescence lifetime (in ClC(Cl)Cl): 0.6 ns
Compound: c1ccc(-c2ccnc(-c3ccccc3)n2)cc1

fluorescence lifetime (in CCCCCCC): 122 ns
Compound: Clc1nc(Cl)nc(Nc2cc3ccc4cccc5ccc(c2)c3c45)n1

fluorescence lifetime (in C1CCCCC1): 2.9 ns | fluorescence lifetime (in CCOC(C)=O): 0.92 ns
Compound: CC1=[N+]2C(=C(c3ccc(C(=O)c4ccccc4)cc3)c3ccc(C)n3[B-]2(F)F)C=C1c1cc2n(c1)[B-](F)(F)[N+]1=CC=CC1=C2c1c(C)cc(C)cc1C

fluorescence lifetime (in C1COCCO1): 1.03 ns
Compound: c1ccc(-c2nc(-c3ccc(-c4nc(-c5ccccc5)c(-c5ccccc5)o4)cc3)oc2-c2ccccc2)cc1

fluorescence lifetime (in ClCCl): 16.9 ns
Compound: CCN(CC)c1ccc2c(c1)oc(=O)c1cc3cnn(-c4ccccc4)c3nc12

fluorescence lifetime (in c1ccccc1): 2.5 ns
Compound: COc1ccc(-c2nc3ccccc3oc2=O)cc1

fluorescence lifetime (in C1CCCCC1): 0.7 ns | fluorescence lifetime (in ClC(Cl)Cl): 0.7 ns
Compound: CN(C)c1ccc(/C=C/c2ccc(-c3nc(C#N)c(C#N)n3C)cc2)cc1

fluorescence lifetime (in CC#N): 12.2 ns | fluorescence lifetime (in ClCCl): 4.6 ns
Compound: Cc1cc(-c2ccccc2C)cc(C)[o+]1

fluorescence lifetime (in ClC(Cl)Cl): 2.57 ns
Compound: C(#Cc1ccc(C#Cc2ccccc2)cc1)c1ccccc1

fluorescence lifetime (in ClCCl): 2.8 ns
Compound: COc1ccc(-c2c3ccccc3c(C#Cc3ccccc3)c3ccccc23)cc1

fluorescence lifetime (in ClCCl): 1.49 ns
Compound: COc1ccc(C#CC2=C3CCc4ccccc4C3=[O+][B-](F)(F)O2)cc1

fluorescence lifetime [1]: 24 ns
Compound: O=C(c1ccc(N2c3ccccc3Oc3ccccc32)cc1)c1cccc(C(=O)c2ccc(N3c4ccccc4Oc4ccccc43)cc2)c1

Compound: c1ccc(-c2nc(-c3ccccc3)nc(-c3ccc(-n4c5ccccc5c5cc(-n6c7ccccc7c7ccccc76)ccc54)cc3)n2)cc1
fluorescence lifetime (in Cc1ccccc1): 6.5 ns

fluorescence lifetime (in CC#N): 15.1 ns | fluorescence lifetime (in CCCCCC): 14.2 ns | fluorescence lifetime (in CCO): 16.1 ns
Compound: c1ccc2c(c1)[nH]c1ccccc12

fluorescence lifetime (in CC#N): 0.6 ns | fluorescence lifetime (in CO): 9.2 ns
Compound: O=C1c2ccccc2-c2c(-c3ccccc3)c(-c3ccccc3)c(-c3ccccc3)c3cccc1c23

fluorescence lifetime (in CC#N): 2.1 ns
Compound: COc1cc(C#Cc2ccccc2)c(C#Cc2ccccc2)cc1OC

fluorescence lifetime (in O): 9.43 ns
Compound: [O-]c1ccc2ccccc2c1

Compound: Cc1cc(C)c(B(c2cc3ccc4cccc5ccc(c2)c3c45)c2c(C)cc(C)cc2C)c(C)c1
fluorescence lifetime (in Cc1ccccc1): 49 ns

Compound: COc1ccc(/C=C/C2=CC(/C=C/c3ccc(OC)c4ccccc34)=[O+][B-](F)(F)O2)c2ccccc12
fluorescence lifetime (in CC#N): 0.65 ns | fluorescence lifetime (in CC(C)=O): 1.03 ns | fluorescence lifetime (in CCOC(C)=O): 1.51 ns | fluorescence lifetime (in CCOCC): 1.34 ns | fluorescence lifetime (in ClC(Cl)(Cl)Cl): 1.18 ns | fluorescence lifetime (in ClCCl): 1.96 ns

fluorescence lifetime (in C1CCOC1): 2.33 ns
Compound: CCN(CC)c1ccc(-c2nc3c(nc2-c2ccc(B(c4c(C)cc(C)cc4C)c4c(C)cc(C)cc4C)cc2)c2ccccc2n3C)cc1

fluorescence lifetime (in CC#N): 2.48 ns
Compound: O=c1oc2ccccc2cc1/C=C/c1ccccc1

fluorescence lifetime (in CN(C)C=O): 0.61 ns | fluorescence lifetime (in ClC(Cl)Cl): 0.58 ns
Compound: CCCCCCOc1ccc(N(c2ccc(OCCCCCC)cc2)c2ccc(-c3sc(-c4ccc(N(c5ccc(OCCCCCC)cc5)c5ccc(OCCCCCC)cc5)cc4)c4nc(-c5ccc(C(=O)OC)cc5)c(-c5ccc(C(=O)OC)cc5)nc34)cc2)cc1

fluorescence lifetime (in CC#N): 2.43 ns | fluorescence lifetime (in CCCCCCCCCCCCCCCC): 4.97 ns | fluorescence lifetime (in CO): 5.24 ns | fluorescence lifetime (in ClC(Cl)Cl): 5.86 ns | fluorescence lifetime (in c1ccccc1): 5.11 ns
Compound: CC(C)(C)C1Nc2ccccc2C(=O)N1Cc1ccccc1 (centres undefined)

fluorescence lifetime (in CC#N): 0.9 ns
Compound: Cc1cccc2nc3[nH]c(=O)[nH]c(=O)c3nc12

Compound: Nc1ccc2c(C(F)(F)F)cc(=O)oc2c1
fluorescence lifetime (in C1CCC2CCCCC2C1): 1.9 ns | fluorescence lifetime (in C1CCCCC1): 1.2 ns | fluorescence lifetime (in C1COCCO1): 4.65 ns | fluorescence lifetime (in CC1CCCCC1): 1.22 ns | fluorescence lifetime (in CC#N): 5.2 ns and 5.13 ns | fluorescence lifetime (in CC(C)=O): 4.97 ns | fluorescence lifetime (in CC(C)O): 5.28 ns | fluorescence lifetime (in CCC(C)CC): 0.842 ns | fluorescence lifetime (in CCCC(C)C): 0.406 ns | fluorescence lifetime (in CCCCCC): 0.854 ns | fluorescence lifetime (in CCCCCCCCO): 5.4 ns | fluorescence lifetime (in CCCCCCO): 5.29 ns | fluorescence lifetime (in CCCCO): 5.24 ns | fluorescence lifetime (in CCO): 5.38 ns | fluorescence lifetime (in CCOC(C)=O): 4.67 ns | fluorescence lifetime (in CN(C)C=O): 5.22 ns | fluorescence lifetime (in CO): 5.31 ns | fluorescence lifetime (in CS(C)=O): 5 ns

fluorescence lifetime (in ClCCl): 0.16 ns
Compound: CCN(CC)c1ccc2c(-c3ccccc3C(=O)O)c3c([o+]c2c1)/C(=C/c1ccc(N2CCCC2)s1)CCC3

Compound: COc1ccc(C2=C(c3ccc(C)cc3)C(c3ccccc3)=[N+]3C2=Nc2c(-c4ccc(OC)cc4)c(-c4ccc(C)cc4)c(-c4ccccc4)n2[B-]3(F)F)cc1
fluorescence lifetime (in Cc1ccccc1): 0.23 ns

fluorescence lifetime (in ClCCl): 6.1 ns
Compound: COC(=O)c1[nH]c(-c2ccc(OC)cc2)c2nnc3ccc(OC)cc3c12

fluorescence lifetime (in ClCCl): 2.37 ns
Compound: Cc1c(C(=O)c2ccccc2)c2ccc3cccc4c5cccc6ccc1c(c65)c2c34

fluorescence lifetime (in ClCCl): 1.48 ns
Compound: FC(F)(F)c1ccc(-c2ccc(-c3cc(-c4ccccn4)nc(-c4ccccn4)c3)cc2)cc1

fluorescence lifetime (in CC#N): 7.1 ns and 6.9 ns
Compound: Cc1cc2nc3c(=O)n(C)c(=O)nc-3n(C)c2cc1C

Compound: c1ccc(-c2nn(-c3ccccc3)c3nc4ccc(-n5c6ccccc6c6ccccc65)cc4cc23)cc1
fluorescence lifetime (in C1CCCCC1): 17.6 ns | fluorescence lifetime (in C1CCOC1): 19.1 ns | fluorescence lifetime (in CC#N): 21.8 ns | fluorescence lifetime (in CC(C)=O): 21.6 ns | fluorescence lifetime (in CCCCCl): 19.1 ns | fluorescence lifetime (in CCCCOCCCC): 19.4 ns | fluorescence lifetime (in CN(C)C=O): 20.2 ns

fluorescence lifetime (in ClC(Cl)Cl): 1.83 ns
Compound: N#Cc1ccc(C#Cc2ccc(C#Cc3ccccc3C#N)cc2C#N)cc1

Compound: COc1ccc(N(c2ccc(OC)cc2)c2ccc3ccc4c(B(c5c(C)cc(C)cc5C)c5c(C)cc(C)cc5C)ccc5ccc2c3c54)cc1
fluorescence lifetime (in C1CCOC1): 3.2 ns | fluorescence lifetime (in CC(C)=O): 0.7 ns | fluorescence lifetime (in CCCCCC): 6.2 ns | fluorescence lifetime (in Cc1ccccc1): 8.2 ns | fluorescence lifetime (in ClC(Cl)Cl): 8.5 ns | fluorescence lifetime (in ClCCl): 3.9 ns

fluorescence lifetime (in Cc1ccccc1-c1cccc(Oc2cc3c4c(c2)Oc2cc(-c5ccccc5C)ccc2B4c2ccc(-c4ccccc4C)cc2O3)c1): 6.01 ns
Compound: Cc1ccc2c(c1)B(c1c(C(C)C)cc(C(C)C)cc1C(C)C)c1cc(C)cc3c1N2c1ccc(C)cc1B3c1c(C(C)C)cc(C(C)C)cc1C(C)C

Compound: c1ccc(-c2nnc(-c3cc(-c4nnc(-c5ccccc5)o4)c(-n4c5ccccc5c5ccccc54)cc3-n3c4ccccc4c4ccccc43)o2)cc1
fluorescence lifetime (in Cc1ccccc1): 4.9 ns | fluorescence lifetime [2]: 8.6 ns

fluorescence lifetime (in ClCCl): 1.1 ns
Compound: Cc1c(C(=O)c2ccc3c4cccc5cccc(c6cccc2c63)c54)c2ccc3cccc4c5cccc6ccc1c(c65)c2c34

Compound: O=C(c1ccc(-n2c3ccccc3c3ccccc32)cc1)c1ccc(-n2c3ccccc3c3ccccc32)cc1
fluorescence lifetime [2]: 59 ns

fluorescence lifetime (in CC#N): 0.91 ns | fluorescence lifetime (in CO): 0.89 ns
Compound: CN1CCN(CCCN2c3ccccc3Sc3ccc(Cl)cc32)CC1

fluorescence lifetime (in ClC(Cl)Cl): 7.96 ns
Compound: CN(C)/C=N\c1ccc2c3c(cccc13)C(=O)c1ccccc1-2

fluorescence lifetime (in C1CCCCC1): 5.8 ns | fluorescence lifetime (in CC#N): 0.9 ns
Compound: COc1cc(OC)c2c(c1)C(=O)c1ccccc1-2

fluorescence lifetime (in CCO): 1.49 ns
Compound: Cc1cc(-c2nnc(-c3c(C(C)C)cc(C(C)C)cc3C(C)C)o2)ccc1-n1c2ccccc2c2ccccc21

fluorescence lifetime (in CCCCCC): 5.85 ns | fluorescence lifetime (in CO): 5.95 ns | fluorescence lifetime (in ClCCl): 5.73 ns
Compound: CC1=CC(C)=[N+]2C1=Cc1c(C)cc(C)n1[B-]2(F)F

fluorescence lifetime (in CO): 1.27 ns
Compound: C/C(=N\Nc1ccc(C#N)cc1)c1cccc(/C(C)=N/Nc2ccc(C#N)cc2)c1

Compound: O=C1c2ccccc2-c2cccc(O)c21
fluorescence lifetime (in C1CCCCC1): 1.24 ns | fluorescence lifetime (in C1COCCO1): 3.38 ns | fluorescence lifetime (in CC#N): 9.67 ns | fluorescence lifetime (in CC(C)O): 5.5 ns | fluorescence lifetime (in CCCCO): 5.22 ns | fluorescence lifetime (in CCCO): 4.82 ns | fluorescence lifetime (in CCO): 4.85 ns | fluorescence lifetime (in CCOC(C)=O): 5.48 ns | fluorescence lifetime (in CCOCC): 2.39 ns | fluorescence lifetime (in CO): 3.61 ns

From the Deep4Chem optical property database
